Data on 29 compounds can be found in patent publication US11859229B2, “Polyvinyl alcohol-degrading enzyme and process for producing the same” (Hayashibara Co., Ltd., priority 2017, dated 2024).

What all share (assay type): biochemical, Pseudomonas sp. VT1B strain (NBRC110478)
The subject of test [1] is PVA-B. The test is described as follows: Substrate specificity of PVA-oxidizing activity of PVA-B. As to conditions: substrate 1% (v/v) or saturated; activity against PVA = 100%. Here is the method:
(§1) To 0.5 mL of a substrate solution prepared by dissolving PVA (Reagent grade polyvinyl alcohol, polymerization degree: 2,000, Nacalai Tesque Inc., Kyoto, Japan) into 100 mM sodium phosphate buffer (pH 7.0) to give a concentration of 2% (w/v), 15 µL of 2% (w/v) of sodium azide solution was added, and then 0.5 mL of an enzyme solution is further added and reacted with shaking at 27° C. for 60 min. After the 60 min-reaction, the reaction was stopped by mixing 0.32 mL of the reaction mixture to 0.8 mL of a titanium reagent, and the yellow color, produced by reacting hydrogen peroxide formed by the enzyme reaction and the titanium reagent, was measured by measuring the absorbance at 410 nm (A410) as an index. Separately, the enzyme solution was added to the substrate solution, and the resulting mixture is immediately mixed with the titanium reagent. The resulting mixture was similarly measured its color and the value was used as the value at the reaction zero minutes. Then, the amount of the formed hydrogen peroxide is determined and the PVA-oxidizing activity is calculated based on the following formula. It is known that the absorbance at 410 nm (A410) increases by “1” when 3.65 […]mole/mL of hydrogen peroxide is formed. Therefore, in the following Formula 1, the coefficient of “3.65” has been multiplied. One unit of the PVA-oxidizing activity is defined as the amount of enzyme that forms 1 […]mole of hydrogen peroxide per min under the above conditions. Titanium reagent is prepared by diluting 5% titanium sulfate (IV) solution, commercialized by Nacalai Tesque Inc., Kyoto, Japan, 25-fold with 10% (w/w) sulfuric acid.
(§2) The substrate specificity of PVA-oxidizing activity was investigated by allowing PVA-A and PVA-B, the purified enzyme preparations obtained by the method in Experiment 2, to act on various secondary alcohols, primary alcohols and the like as substrates. In other words, the PVA-oxidizing activity of the enzymes was measured for primary alcohols having different chain length (methanol, ethanol, propanol, butanol, pentanol, hexanol, heptanol, and decanol), secondary alcohols (2-propanol, 2-pentanol, 2-hexanol, 4-heptanol, 2-octanol, 4-decanol, and 2, 4-pentanediol), and a tertiary alcohol (tert-butanol).

In test [2] the test system is PVA-A. Kind of test: Substrate specificity of PVA-oxidizing activity of PVA-A. Particulars: substrate 1% (v/v) or saturated; activity against PVA = 100%. Here is the method: as §1, §2
For test [3], the system named is PVA-B. Kind of test: Effects of various metal salts on PVA-oxidizing activity of PVA-B. Here is the method:
as §1
(§3) Using the purified enzyme preparations of PVA-A and PVA-B, obtained by the method of Experiment 2, effects of various metal salts on the enzyme activity were investigated according to the assay of the PVA-oxidizing activity as an index in the presence of 1 mM metal salts.

The test system of test [4] is PVA-A. The test is described as follows: Effects of various metal salts on PVA-oxidizing activity of PVA-A. Here is the method: as §1, §3
Test [5] deals with PVA-A and PVA-B. The test is described as follows: Effects of metal salts on PVA-oxidizing activity, summary for both enzymes. Particulars: 1 mM, in words. Here is the method:
as §3

[6] abbreviates: PVA-oxidizing activity in the presence of 1 mM metal salts, None = 100.

`CC(O)CC(C)O` (stereo not shown) [2,4-Pentanediol]: the “Relative activity (%) PVA-B” value in test [1] is reported as 0%. The “Relative activity (%) PVA-A” value in test [2] is listed as 0%.

`CCCCC(C)O` (stereo not shown) [2-Hexanol]: in test [1], the “Relative activity (%) PVA-B” value is 8%. Besides, the “Relative activity (%) PVA-A” value in test [2] was 5%.

As for `CCCCCCC(C)O` (stereo not shown) [2-Octanol], the “Relative activity (%) PVA-B” value in test [1] came out at 6%. The “Relative activity (%) PVA-A” value in test [2] is given as 3%.

In the case of `CCCC(C)O` (stereo not shown) [2-Pentanol], the “Relative activity (%) PVA-B” value in test [1] is given as 5%. The “Relative activity (%) PVA-A” value in test [2] was found to be 2%.

As to `CC(C)O` [2-Propanol], in test [1], the “Relative activity (%) PVA-B” value is 1%. Also, the “Relative activity (%) PVA-A” value in test [2] came out at 0%.

For `CCCCCCC(O)CCC` (stereo not shown) [4-Decanol], the “Relative activity (%) PVA-B” value in test [1] worked out at 1%. Moreover, the “Relative activity (%) PVA-A” value in test [2] was determined as 3%.

As for `CCCC(O)CCC` [4-Heptanol], the “Relative activity (%) PVA-B” value in test [1] is recorded as 12%. Moreover, the “Relative activity (%) PVA-A” value in test [2] came to 21%.

In the case of `[Cl][Al]([Cl])[Cl]` [AlCl3], in test [3] (setting [6]), the “Relative activity (%) PVA-B” value came out at 63%. For the same compound, the “Relative activity (%) PVA-A” value in test [4] (setting [6]) came to 91%.

Regarding `[Ca+2].[Cl-].[Cl-]` [CaCl2], in test [3] (setting [6]), the “Relative activity (%) PVA-B” value worked out at 98%. For the same compound, the “Relative activity (%) PVA-A” value in test [4] (setting [6]) turned out to be 98%.

On to `CCCCCCCCCCO` [Decanol], for which, in test [1], the “Relative activity (%) PVA-B” value came to 0%. In addition, the “Relative activity (%) PVA-A” value in test [2] was 0%.

Regarding `O=C(O)CN(CCN(CC(=O)O)CC(=O)O)CC(=O)O` [EDTA], the “Relative activity (%) PVA-B” value in test [3] (setting [6]) stood at 45%. Further, in test [4] (setting [6]), the “Relative activity (%) PVA-A” value is recorded as 56%. Besides, in test [5], the “Effect on PVA-oxidizing activity” value is “also inhibited”.

Take `CCO` [Ethanol]: the “Relative activity (%) PVA-B” value in test [1] is given as 0%. In addition, the “Relative activity (%) PVA-A” value in test [2] is given as 0%.

For the compound `[Cl][Fe]([Cl])[Cl]` [FeCl3], the “Relative activity (%) PVA-B” value in test [3] (setting [6]) came out at 19%. In addition, the “Relative activity (%) PVA-A” value in test [4] (setting [6]) is recorded as 29%. Moreover, the “Effect on PVA-oxidizing activity” value in test [5] was “remarkably inhibited”.

Turning to `CCCCCCCO` [Heptanol], the “Relative activity (%) PVA-B” value in test [1] was found to be 1%. In addition, the “Relative activity (%) PVA-A” value in test [2] is listed as 0%.

For the compound `CCCCCCO` [Hexanol], the “Relative activity (%) PVA-B” value in test [1] turned out to be 1%. Also, in test [2], the “Relative activity (%) PVA-A” value is recorded as 0%.

Consider `[Cl][Hg][Cl]` [HgCl2], for which the “Relative activity (%) PVA-B” value in test [3] (setting [6]) stood at 4%. For the same compound, the “Relative activity (%) PVA-A” value in test [4] (setting [6]) amounted to 22%. The “Effect on PVA-oxidizing activity” value in test [5] is “remarkably inhibited”.

`[Cl-].[K+]` [KCl]: in test [3] (setting [6]), the “Relative activity (%) PVA-B” value is recorded as 116%. Also, the “Relative activity (%) PVA-A” value in test [4] (setting [6]) worked out at 93%.

Take `CO` [Methanol]: the “Relative activity (%) PVA-B” value in test [1] came out at 0%. The “Relative activity (%) PVA-A” value in test [2] is 0%.

For the compound `[Cl-].[Cl-].[Mg+2]` [MgCl2], the “Relative activity (%) PVA-B” value in test [3] (setting [6]) worked out at 104%. The “Relative activity (%) PVA-A” value in test [4] (setting [6]) stood at 98%.

In the case of `[Cl][Mn][Cl]` [MnCl2], the “Relative activity (%) PVA-B” value in test [3] (setting [6]) came to 87%. In test [4] (setting [6]), the “Relative activity (%) PVA-A” value is recorded as 96%.

On to `[Cl-].[Na+]` [NaCl], for which, in test [3], the “Relative activity (%) PVA-B” value came out at 106%. Besides, in test [4], the “Relative activity (%) PVA-A” value was 94%.

Take `[Cl][Ni][Cl]` [NiCl2]: the “Relative activity (%) PVA-B” value in test [3] (setting [6]) is recorded as 76%. The “Relative activity (%) PVA-A” value in test [4] (setting [6]) is listed as 91%.

As for `CCCCCO` [Pentanol], the “Relative activity (%) PVA-B” value in test [1] was 0%. For the same compound, the “Relative activity (%) PVA-A” value in test [2] is recorded as 0%.

`CCCO` [Propanol]: the “Relative activity (%) PVA-B” value in test [1] came to 0%. The “Relative activity (%) PVA-A” value in test [2] was found to be 0%.

Consider `[Cl][Sn][Cl]` [SnCl2], for which the “Relative activity (%) PVA-B” value in test [3] (setting [6]) is recorded as 102%. Besides, the “Relative activity (%) PVA-A” value in test [4] (setting [6]) is listed as 78%.

In the case of `[Cl-].[Cl-].[Sr+2]` [SrCl2], in test [3] (setting [6]), the “Relative activity (%) PVA-B” value is given as 101%. The “Relative activity (%) PVA-A” value in test [4] (setting [6]) came to 99%.

As for `CC(C)(C)O` [tert-Butanol], the “Relative activity (%) PVA-B” value in test [1] came to 1%. Further, the “Relative activity (%) PVA-A” value in test [2] is recorded as 0%.

Butanol: the “Relative activity (%) PVA-B” value in test [1] was 0%. The “Relative activity (%) PVA-A” value in test [2] was determined as 0%.

Consider RbCl2, for which, in test [3] (setting [6]), the “Relative activity (%) PVA-B” value is recorded as 99%. For the same compound, in test [4] (setting [6]), the “Relative activity (%) PVA-A” value is given as 91%.
